Experiment [1] has as its target human recombinant histamine H1 receptor (Homo sapiens, UniProt P35367). Description: Histamine H1 radioligand binding assay ([3H]Pyrilamine). To be noted: compound at 0.1 μM, receptor expressed in CHO cells. The procedure, abridged:
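Membranes from CHO cells expressing the receptor, in 50 mM Tris-HCl pH 7.4 with 2 mM MgCl2, 100 mM NaCl and 250 mM sucrose, incubated with 1.2 nM [3H]pyrilamine for 180 min at 25° C; nonspecific binding defined with 1 μM pyrilamine.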

The target of experiment [2] is T1, human recombinant adrenergic α1D receptor (Homo sapiens, UniProt P25100).
T1 construct: expressed in transfected cells; host or cells: human embryonic kidney (HEK-293) cells
T1 sequence (P25100 1-572): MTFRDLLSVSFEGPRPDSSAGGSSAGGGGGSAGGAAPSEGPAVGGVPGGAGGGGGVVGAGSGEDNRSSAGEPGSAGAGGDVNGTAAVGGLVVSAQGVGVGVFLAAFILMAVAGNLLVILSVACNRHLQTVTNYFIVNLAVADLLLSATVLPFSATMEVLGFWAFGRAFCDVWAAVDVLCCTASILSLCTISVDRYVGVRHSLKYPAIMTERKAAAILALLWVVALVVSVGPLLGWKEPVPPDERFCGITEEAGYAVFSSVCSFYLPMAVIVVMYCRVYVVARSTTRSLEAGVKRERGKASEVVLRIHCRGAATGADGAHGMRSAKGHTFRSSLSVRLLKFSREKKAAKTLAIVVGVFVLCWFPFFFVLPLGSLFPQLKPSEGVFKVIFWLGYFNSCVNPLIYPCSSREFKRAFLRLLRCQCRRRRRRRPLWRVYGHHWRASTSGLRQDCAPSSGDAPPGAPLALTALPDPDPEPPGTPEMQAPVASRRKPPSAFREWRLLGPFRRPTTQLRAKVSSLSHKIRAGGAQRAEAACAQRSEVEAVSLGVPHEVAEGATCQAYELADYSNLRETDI
Put plainly: Adrenergic α1D radioligand binding assay ([3H]Prozosin). To be noted: compound at 0.1 μM; 0.6 nM [3H]Prozosin; HEK-293 cells; read-out: Percent Inhibition of ligand binding, Adrenergic (0.1 μM) a1D. The procedure: Compounds of invention were incubated with 0.6 nM [^3H]Prozosin for 60 min at 25° C. Non-specific binding was estimated in the presence of 10 μM phentolamine Receptor proteins were filtered and washed, the filters were then counted to determine [^3H]Prozosin specifically bound.

The target in experiment [3] is T2, rat adrenergic α1B receptor (Rattus norvegicus, UniProt P15823).
T2 construct: from tissue; host or cells: Wistar Rat liver
T2 sequence (P15823 1-515): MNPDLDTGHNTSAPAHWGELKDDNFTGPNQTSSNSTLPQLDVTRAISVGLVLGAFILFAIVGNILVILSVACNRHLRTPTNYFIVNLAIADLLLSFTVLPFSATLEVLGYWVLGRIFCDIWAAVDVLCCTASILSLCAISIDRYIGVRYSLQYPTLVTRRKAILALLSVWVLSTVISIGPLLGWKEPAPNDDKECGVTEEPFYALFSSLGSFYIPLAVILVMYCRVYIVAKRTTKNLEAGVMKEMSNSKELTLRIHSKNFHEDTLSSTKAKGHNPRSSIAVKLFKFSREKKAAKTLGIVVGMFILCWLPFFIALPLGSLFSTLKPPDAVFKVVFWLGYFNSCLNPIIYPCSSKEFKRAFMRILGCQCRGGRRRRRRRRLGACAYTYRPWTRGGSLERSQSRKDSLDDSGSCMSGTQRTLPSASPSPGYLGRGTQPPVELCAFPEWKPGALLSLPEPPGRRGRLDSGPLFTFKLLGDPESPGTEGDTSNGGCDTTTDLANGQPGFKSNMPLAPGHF
Description: Adrenergic α1B radioligand binding assay ([3H]Prozosin). To be noted: compound at 0.1 μM; 0.25 nM [3H]Prozosin; Wistar Rat liver; read-out: Percent Inhibition of ligand binding, Adrenergic (0.1 μM) a1B. The procedure: To evaluate in radioligand binding assays the activity of compounds of the invention, rat adrenergic α1B receptor obtained from Wistar Rat liver (Garcia-S'ainz, J. A. et al., Biochem. Biophys. Res. Commun. 186:760, 1992; Michel A. D. et al., Br. J. Pharmacol. 98:883, 1989) in a modified Tris-HCl buffer (50 mM Tris-HCl buffer, pH 7.4, 0.5 mM EDTA) is used. Compounds of the invention are incubated with 0.25 nM [^3H]Prozosin for 60 min at 25° C. Non-specific binding is estimated in the presence of 10 μM phentolamine. Receptor proteins are filtered and washed, the filters are then counted to determine [^3H]Prozosin specifically bound. Compounds are screened at 1 μM or lower, using 1% DMSO as vehicle. Compounds of the invention are tested in this biochemical assay and percent inhibition of specific binding is determined.

Experiment [4] addresses T3, human recombinant serotonin (5-Hydroxytryptamine) 5-HT5A receptor (Homo sapiens, UniProt P47898).
T3 construct: expressed in transfected cells; host or cells: Chinese hamster ovary (CHO-K1) cells
Description: Serotonin 5-HT5A radioligand binding assay ([3H]LSD). To be noted: compound at 0.1 μM; 1.7 nM [3H]LSD; CHO-K1 cells; read-out: Percent Inhibition of ligand binding, Serotonin (0.1 μM) 5-HT5A. The procedure:
Compounds of the invention were incubated with 1.7 nM [^3H]Lysergic acid diethylamide (LSD) for 60 min at 37° C. […] Receptor proteins were filtered and washed, the filters were then counted to determine [^3H]LSD specifically bound. Compounds were screened at 1 μM or lower, using 1% DMSO as vehicle. Compounds of the invention were tested in this biochemical assay and percent inhibition of specific binding was determined. Biochemical assay results are presented as the percent inhibition of specific binding in Table 4.

T3 sequence (P47898 whole entry): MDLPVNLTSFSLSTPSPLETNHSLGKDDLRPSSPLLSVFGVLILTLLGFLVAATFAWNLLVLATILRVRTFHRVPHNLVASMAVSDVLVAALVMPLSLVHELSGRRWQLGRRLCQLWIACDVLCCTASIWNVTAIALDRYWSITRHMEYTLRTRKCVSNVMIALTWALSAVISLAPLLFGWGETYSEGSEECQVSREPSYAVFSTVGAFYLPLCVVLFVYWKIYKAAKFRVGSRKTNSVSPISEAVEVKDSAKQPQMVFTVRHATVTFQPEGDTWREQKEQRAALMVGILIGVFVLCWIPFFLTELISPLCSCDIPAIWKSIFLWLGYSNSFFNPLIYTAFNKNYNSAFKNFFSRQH
human recombinant histamine H1 receptor, sequence (P35367 whole entry): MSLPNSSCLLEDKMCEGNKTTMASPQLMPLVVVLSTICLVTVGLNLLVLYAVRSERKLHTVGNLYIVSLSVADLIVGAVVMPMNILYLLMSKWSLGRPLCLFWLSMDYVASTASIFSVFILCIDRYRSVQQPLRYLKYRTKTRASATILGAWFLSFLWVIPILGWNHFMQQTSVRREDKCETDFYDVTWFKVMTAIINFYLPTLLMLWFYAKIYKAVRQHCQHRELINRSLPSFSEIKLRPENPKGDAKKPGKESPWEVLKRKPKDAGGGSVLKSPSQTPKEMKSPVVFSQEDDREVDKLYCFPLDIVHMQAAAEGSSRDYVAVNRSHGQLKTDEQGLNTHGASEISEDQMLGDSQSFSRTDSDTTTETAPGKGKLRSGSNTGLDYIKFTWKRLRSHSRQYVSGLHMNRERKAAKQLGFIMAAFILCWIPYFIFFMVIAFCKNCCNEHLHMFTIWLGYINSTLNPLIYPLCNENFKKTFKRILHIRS

A word on the inhibition: it is the change of the read-out against control, counted positive when it falls. For the molecule `CCCC[C@](O)(Cn1c2c(c3cc(Cl)ccc31)CN(C)CC2)c1ccc(F)cc1` [Compound 1-61, (R)-1-(8-Chloro-2-methyl-3,4-dihydro-1H-pyrido[4,3-b]indol-5(2H)-yl)-2-(4-fluorophenyl)hexan-2-ol], the inhibition at 0.1 µM is -7% in experiment [1], 14% in experiment [2], 0% in experiment [3] and 5% in experiment [4].
The matching figures for `Cc1ccc2c(c1)c1c(n2CCc2ccc(C)nc2)CCN(CC(F)(F)F)C1` [Compound 1-65, 8-methyl-5-(2-(6-methylpyridin-3-yl)ethyl)-2-(2,2,2-trifluoroethyl)-2,3,4,5-tetrahydro-1H-pyrido[4,3-b]indole]: 11%, 4%, -4% and -12%.
Take `CCCC[C@@](O)(Cn1c2c(c3cc(Cl)ccc31)CN(C)CC2)c1ccc(F)cc1` [Compound 1-67, (S)-1-(8-chloro-2-methyl-3,4-dihydro-1H-pyrido[4,3-b]indol-5(2H)-yl)-2-(4-fluorophenyl)hexan-2-ol]: the inhibition at 0.1 µM in experiment [1] is -2%; in experiment [3], -2%; in experiment [4], -11%.
Consider `CC[C@](O)(Cn1c2c(c3cc(C)ccc31)CN(C)CC2)c1ccncc1` [Compound 1-63, (R)-1-(2,8-Dimethyl-3,4-dihydro-1H-pyrido[4,3-b]indol-5(2H)-yl)-2-(pyridine-4-yl)butan-2-ol], for which the inhibition at 0.1 µM in experiment [1] was 18%; in experiment [2], -13%; in experiment [3] it was 5%; in experiment [4], 15%.
On the same counts, the results for `CC[C@](O)(Cn1c2c(c3cc(C)ccc31)CN(C)CC2)c1ccc(F)cc1` [Compound 1-60, (R)-1-(2,8-Dimethyl-3,4-dihydro-1H-pyrido[4,3-b]indol-5(2H)-yl)-2-(4-fluorophenyl)butan-2-ol] are 10%, 13%, -2% and 26%.

Source of the values: patent publication US9255094B2, “Pyrido[4,3-B]indoles and methods of use” (Medivation Technologies, Inc., priority 2009, dated 2016).
